Assays:
[1] = biological target: T1, Human D2R (Homo sapiens, UniProt P14416); assay: D2R competition binding ([3H]-spiperone displacement); settings: radioligand displacement, mean±SEM of three experiments in duplicate; read-out: D2R binding affinity Ki
T1 construct: expressed in transfected cells; host or cells: CHO-D2R #S20 cell line (membranes)
Protocol: Human D2R competition binding experiments w ere carried out in polypropylene 96-well plates. Each well contained 10 µg of membranes from a CHO-D2R #S20 cell line (protein concentration of 3241 µg/ml), 0.4 nM [3H]-spiperone (80. 2 Ci/mmol, 1 mCi/ml, Perkin […]
The reaction mixture (250 µl/well) was incubated at 25°C for 120 min , after which 200 µL was transferred to a GF/C 96 -well plate (Millipore, Madrid, Spain) pretreated with 0. 5% of PEI and treated with binding buffer (50 mM Tris-HCl, 1 mM EDTA, 5 mM MgCl2, 5 mM KCl, 120 mM NaCl, pH=7.4). The […]
samples were filtered and washed four times with 250 µl wash buffer (50 mM Tris-HCl, 0.9% NaCl, pH=7.4) before measuring in a microplate beta scintillation counter (Microbeta Trilux, PerkinElmer, Madrid, Spain). Three independent exp eriments were carried out to calculate Ki values (n=3). […]

[2] = biological target: T2, Human A1AR (Homo sapiens, UniProt P30542); assay: A1AR competition binding ([3H]-DPCPX); settings: for A1AR % displacement at 10 µM: 10 µM compound, n=2
T2 construct: expressed in transfected cells; host or cells: CHO-A1AR cell line (membranes)
T2 sequence (P30542 1-326): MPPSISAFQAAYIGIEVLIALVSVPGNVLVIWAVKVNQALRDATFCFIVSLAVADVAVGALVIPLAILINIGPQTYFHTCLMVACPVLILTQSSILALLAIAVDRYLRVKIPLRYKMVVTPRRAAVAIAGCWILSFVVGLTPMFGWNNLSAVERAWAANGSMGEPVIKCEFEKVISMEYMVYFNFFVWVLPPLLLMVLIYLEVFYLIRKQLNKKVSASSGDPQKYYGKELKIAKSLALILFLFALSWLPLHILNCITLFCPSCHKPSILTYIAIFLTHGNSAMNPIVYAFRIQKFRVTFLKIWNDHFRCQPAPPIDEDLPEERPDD
Protocol: Human A1AR competition binding experiments were carried out in multiscreen GF/C 96 -well plates (Millipore, Madrid, Spain) pretreated with assay buffer ( 20 mM Hepes, 100 mM NaCl, 10 mM MgCl2, 2 U/ml adeno sine deamina se, pH=7.4). Each well contained 5 µg of membranes from a CHO-A1AR cell line, 1 nM [3H]-DPCPX (137 Ci/mmol, 1 mCi/Ml, Perkin Elmer NET974001MC), and the compound studied. Non-specific binding was determined in the presence of R-PIA 10 µM (Sigma P4532). The reaction mixture (200 µl/well) was incubated at 25°C for 60 min. The samples were then filtered and washed four times with 250 µl wash buffer (20 mM Hepes, 100 mM NaCl, 10 mM MgCl2, pH=7.4) before measuring in a microplate beta scintillati on counter (Microbeta Trilux, PerkinElmer, Madrid, Spain). Two independent experiments were carried out to calculate K i values (n=2). […]

[3] = Caco-2 cell permeability; format: in vitro ADME; settings: human, Caco-2 monolayer
Protocol: forskolin (Sigma 17018) was added and incubated for 5 min at 37 °C with gentle stirring (150 rpm). Reagents (#CISBIO 62AM4PEC) were added and, after incubation for 60 min at rt with gentle stirring (90 rpm) and protected from light, homogeneous time resolved fluorescence (HTRF, λEx: 320 nm; λEm: 620-665 nm) from each well was measured using a Tecan Infinite M1000 Pro. Data were normalized to the maximum effect of dopamine. EC50 and Ema x values were obtained after fitting the d ata to a four -parameter logistic equatio n using Prism V2. 1 (Graph Pad Inc, Chicago, USA) .
Cell permeability. The Caco-2 cell permeability of compound 30 was determined by the Uppsala university optimization and pharmaceutical profiling platform (UDOPP) as described previously26. Briefly, Caco-2 cell monolayers (passage 94-105) were grown on a permeable filter support and used on day 21 after seeding. Prior to the experiment a 10 µM solution of 30 was prepared by dilution of a 10 mM stock solution in DMSO with Hank’ s balanced salt solution (HBSS; 7.4) and warmed to 37 ° C. The Caco-2 filters were washed with pre-warmed HBSS prior to the experiment, and the solution of 30 was thereafter applied on the apical or basolateral side of the monolayer. Permeability was determined at 37 ° C and at pH 7.4 in both the apical and basolateral chamber, with a stirring rate of 500 rpm. […]

T1 sequence (P14416 whole entry): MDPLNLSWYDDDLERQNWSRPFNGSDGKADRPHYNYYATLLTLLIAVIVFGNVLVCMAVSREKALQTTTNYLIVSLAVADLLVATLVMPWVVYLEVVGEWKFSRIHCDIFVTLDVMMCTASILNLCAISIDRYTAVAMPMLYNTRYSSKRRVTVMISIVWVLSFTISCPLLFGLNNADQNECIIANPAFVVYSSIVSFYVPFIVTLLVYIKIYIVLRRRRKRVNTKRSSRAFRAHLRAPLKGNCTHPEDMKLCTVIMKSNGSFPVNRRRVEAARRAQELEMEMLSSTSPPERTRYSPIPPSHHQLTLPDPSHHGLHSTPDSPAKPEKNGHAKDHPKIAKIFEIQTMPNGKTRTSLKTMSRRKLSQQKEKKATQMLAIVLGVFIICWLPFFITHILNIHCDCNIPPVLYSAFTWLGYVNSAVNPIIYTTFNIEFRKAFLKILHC

Ki [1] [nM]	A1AR % displacement at 10 µM [2] [%]	Ki ([2]; mean±SEM of two experiments in duplicate, read-out: A1AR binding affinity Ki) [nM]	Papp A→B at 60 min, 10 µM ([3]; 10 µM, pH 7.4, 37 °C, apical to basolateral) [×10⁻⁶ cm/s]	efflux ratio at 60 min, 10 µM ([3]; pH 7.4, read-out: efflux ratio (ER))	SMILES
340 ± 40					CCN(CCCCC(=O)Nc1nc2c(Br)cccc2s1)C1Cc2ccccc2C1 [Compound 22]
230 ± 20	22 ± 1				CCCN(CCCCC(=O)Nc1nc2c(OC)cccc2s1)C1Cc2ccccc2C1 [Compound 26]
530 ± 180	37 ± 4				CCCN(CCCCC(=O)Nc1nc2c(Br)cccc2s1)C1Cc2ccccc2C1 [Compound 27]
370 ± 30	35 ± 1	> 10000	3.8	8	CCCN(CCCCC(=O)Nc1nc2c(OC)ccc(OC)c2s1)C1Cc2ccccc2C1 [Compound 30]
